Assay results: US12391683B2, “Therapeutic compounds and methods” (Actio Biosciences, Inc., priority 2022, dated 2025)
Several values for one entry are separate records, joined by “and”; a condition that tells them apart may be missing. Equal entries are not always repeated.

Assays:
[1] = molecular target: T1, TRPV6 channels (Homo sapiens, UniProt Q9H1D0); test: TRP Family FLIPR Assay, TRPV6; format: cell-based; settings: antagonist mode; activated with 0.9 mM calcium ion; HEK293 cells; 0.003-10 μM; read-out: IC50 hTRPV6
T1 construct: expressed in transfected cells; host or cells: HEK293
T1 sequence (Q9H1D0 1-765): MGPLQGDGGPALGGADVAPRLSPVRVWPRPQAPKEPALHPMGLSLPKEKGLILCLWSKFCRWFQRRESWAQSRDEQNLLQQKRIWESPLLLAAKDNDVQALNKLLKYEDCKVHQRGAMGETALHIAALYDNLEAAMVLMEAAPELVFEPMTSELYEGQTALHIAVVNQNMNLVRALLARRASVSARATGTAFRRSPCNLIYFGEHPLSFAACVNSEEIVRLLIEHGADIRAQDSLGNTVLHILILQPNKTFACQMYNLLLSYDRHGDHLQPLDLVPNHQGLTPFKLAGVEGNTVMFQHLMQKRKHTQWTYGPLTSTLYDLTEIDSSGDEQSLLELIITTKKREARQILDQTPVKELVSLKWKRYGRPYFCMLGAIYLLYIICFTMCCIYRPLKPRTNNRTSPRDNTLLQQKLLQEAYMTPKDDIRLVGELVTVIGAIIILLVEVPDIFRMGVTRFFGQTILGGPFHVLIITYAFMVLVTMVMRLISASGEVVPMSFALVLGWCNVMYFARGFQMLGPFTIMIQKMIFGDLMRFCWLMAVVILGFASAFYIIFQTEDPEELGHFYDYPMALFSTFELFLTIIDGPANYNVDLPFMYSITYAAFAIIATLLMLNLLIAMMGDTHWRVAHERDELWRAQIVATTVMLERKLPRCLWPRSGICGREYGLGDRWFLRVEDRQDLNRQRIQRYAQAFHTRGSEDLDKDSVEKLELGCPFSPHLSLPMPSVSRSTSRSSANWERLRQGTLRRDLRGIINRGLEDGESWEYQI
Description: The compound of Example 5 was tested for selectivity against a panel of Human TRP family ion channels in a TRP Family FLIPR Assay as described below. • 1. TRPC3 channels (human TRPC3 variant 1 gene, expressed in HEK293 cells). • 2. TRPC4 channels (human TRPC4 gene, expressed in HEK293 cells). • 3. TRPC5 channels (human TRPC5 gene, expressed in HEK293 cells). • 4. TRPC6 channels (human TRPC6 gene, expressed in HEK293 cells). • 5. TRPM2 channels (human TRPM2 gene, transiently expressed in HEK293 cells). • 6. TRPM3 channels (human TRPM3 gene, transiently expressed in HEK293 cells). • 7. TRPM4 channels (human TRPM4 gene, expressed in CHO cells). • 8. […]
Data acquisition was performed via the FLIPR Control software supplied with the FLIPR System (MDS-AT) and data was analyzed using Microsoft Excel (Microsoft Corp., Redmond, WA) or GraphPad Prism. […]
[formula] where Base is the response at low concentrations of test article, Max is the maximum response at high concentrations, xhalf the EC50, or IC50, the concentration of test article producing either half-maximal activation or inhibition, and rate is the Hill coefficient. […] No assumptions about the fit parameters was made; the fit parameters were determined by the algorithm.
The effect of each test article was evaluated at eight (8) concentrations: 0.003, 0.01, 0.03, 0.1, 0.3, 1, 3 and 10 μM, n≤4 wells/concentration). […]

[2] = molecular target: recombinant human CYP3A4 enzyme (Homo sapiens, UniProt P08684); test: CYP3A4 incubation assay; format: in vitro ADME
Chain of recombinant human CYP3A4 enzyme (P08684 whole entry): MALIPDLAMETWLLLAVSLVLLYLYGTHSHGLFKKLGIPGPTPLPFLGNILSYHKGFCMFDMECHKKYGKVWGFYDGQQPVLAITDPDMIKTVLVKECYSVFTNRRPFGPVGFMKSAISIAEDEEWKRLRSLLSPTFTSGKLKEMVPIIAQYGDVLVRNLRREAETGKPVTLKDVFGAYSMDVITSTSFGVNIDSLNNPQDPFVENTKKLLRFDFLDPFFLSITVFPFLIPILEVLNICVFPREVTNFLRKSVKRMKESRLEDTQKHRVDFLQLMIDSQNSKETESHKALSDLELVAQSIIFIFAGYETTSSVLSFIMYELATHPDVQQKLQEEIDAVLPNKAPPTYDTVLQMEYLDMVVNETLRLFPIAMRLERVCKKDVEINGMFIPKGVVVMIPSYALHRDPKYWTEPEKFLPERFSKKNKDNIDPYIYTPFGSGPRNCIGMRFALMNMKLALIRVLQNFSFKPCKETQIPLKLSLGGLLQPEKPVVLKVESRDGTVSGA
Description: Example 24. CYP3A4 Incubation Assay
Compounds (final concentration […]) were incubated in 100 mM phosphate buffer containing 100 pmol/mL recombinant human CYP3A4 enzyme for 0, 5, 10, 15 and 25 minutes.
Testosterone was used as positive control. Reaction was initiated by the addition of NADPH (final concentration […]) and carried out at 37° C. The reaction was stopped by the addition of 4 volumes of cold acetonitrile (with 100 nM alprazolam, 200 nM labetalol, 200 nM imipramine and 2 μM ketoprofen as internal standards). Samples were centrifuged at 3,220 g for 40 minutes to precipitate protein. 70 μL supernatant was transferred to the analysis plate containing 110 μL of acetonitrile for LC-MS/MS analysis.
The following table indicates the percentage remaining for the indicated examples after incubation with recombinant Human CYP3A4 after 25 minutes under the same conditions as described for Example […].

CC(C)(O)c1cnc(N2C[C@@]3(CC[C@@H](F)[C@](C)(Cn4cnc5ccc(C#N)cc54)C3)OC2=O)cn1 (single isomer, unassigned) [Example 5]
IC50 [1]: > 10 µM
CYP3A4 Clint ([2]; 100 pmol/mL recombinant human CYP3A4, 37° C., 0-25 min): 0.09 μL/min/pmol CYP450 and < 0.07 μL/min/pmol CYP450
Metabolic Stability in Recombinant Human CYP3A4 + NADPH (% remaining after 25 min) ([2]; recombinant Human CYP3A4 + NADPH, 25 min): 100%
